Measured values published in patent US11059778B2, “Cannabinoid receptor CB2 ligand 4-(aminomethyl)-N, N-dialkylanilines” (UNIVERSITY OF PITTSBURGH—OF THE COMMONWEALTH SYSTEM OF …, priority 2015, dated 2021).
pKi: −log10 of the molar value.

Tests used:
[1] = target: T1, CHO cells expressing human CB2 receptors (Homo sapiens, UniProt P34972); assay: cell-based LANCE cAMP assay; conditions: forskolin-stimulated, RO-20-1724 present, FIG. 4
T1 construct: expressed in transfected cells; host or cells: CHO cells, stably transfected
T1 sequence (P34972 whole entry): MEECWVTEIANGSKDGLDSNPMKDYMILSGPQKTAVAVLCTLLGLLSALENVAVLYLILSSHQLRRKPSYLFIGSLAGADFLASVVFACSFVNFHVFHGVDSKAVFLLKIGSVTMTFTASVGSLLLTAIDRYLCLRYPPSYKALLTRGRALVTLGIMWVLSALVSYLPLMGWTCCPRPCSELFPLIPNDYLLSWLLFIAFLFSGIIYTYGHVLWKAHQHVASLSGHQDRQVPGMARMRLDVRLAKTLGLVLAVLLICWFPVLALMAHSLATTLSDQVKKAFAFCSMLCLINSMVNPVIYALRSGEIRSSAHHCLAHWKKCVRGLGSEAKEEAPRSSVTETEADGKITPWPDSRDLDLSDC
Method: FIG. 4 relates to cAMP Assay Results. LANCE signal of CB2 ligands. Stably transfected CHO cells expressing human CB2 receptors were utilized to carry out the LANCE cAMP assay. […] Data is mean±SEM of all experiments of two or more performed in triplicate.
(§1) The antibodies are labeled with Alexa Fluor dye that is sensitive to energy emissions. Briefly, the cell-based LANCE cAMP assays were performed on 384-well ProxiPlates using CHO cells stably expressing the CB2 receptors at density of 2×10^3 cells per well in 5 μL of RPMI-1640 medium (Gibco Laboratories, Grand Island, N.Y.) containing 1% dialyzed FBS, 25 mM HEPES, […], and 200 μg/ml of […]. After incubation overnight, 2.5 μL of cAMP antibody and RO20-1724 (a phosphodiesterase inhibitor) in stimulation buffer (DPBS 1×, containing 0.1% BSA) was added to each well, followed by the addition of 2.5 μL of the compound plus the forskolin complex (an adenyl cyclase activator). After incubation at room temperature for 45 minutes, 10 μL of detection buffer was added into each well. The plate was then incubated at room temperature for 1 hour. The plate was then measured in a Synergy H1 hybrid reader (BioTek) with excitation at 340 nm and emission at 665 nm. The results represent at least two independent experiments each in triplicates. EC50 values were determined by nonlinear regression dose-response curve (GraphPad Prism 5).
as §1, with “Cyclic AMP levels were measured by performing the cell-based LANCE cAMP-384 kit assay (PerkinElmer) as previously described 13-14. The assay is based on the competition between the europium-labeled cAMP tracer complex and sample cAMP for binding sites on cAMP-specific antibodies. The antibodies” for “The antibodies”
The LANCE cAMP assay was carried out to measure the functional activities of our synthesized CB2 selective ligands as previously described 14. Briefly, the assay was performed on 384-well plates using CHO cells stably expressing CB2 receptors in the presence of phosphodiesterase inhibitor, RO-20-1724 and adenyl cyclase activator, forskolin.

[2] = target: T2, human CB1 receptors (Homo sapiens, UniProt P21554); assay: [3H]CP-55,940 radioligand competition binding assay, CB1; conditions: CHO cell membranes, [3H]CP-55,940 displacement
T2 construct: expressed in transfected cells
T2 sequence (P21554 whole entry): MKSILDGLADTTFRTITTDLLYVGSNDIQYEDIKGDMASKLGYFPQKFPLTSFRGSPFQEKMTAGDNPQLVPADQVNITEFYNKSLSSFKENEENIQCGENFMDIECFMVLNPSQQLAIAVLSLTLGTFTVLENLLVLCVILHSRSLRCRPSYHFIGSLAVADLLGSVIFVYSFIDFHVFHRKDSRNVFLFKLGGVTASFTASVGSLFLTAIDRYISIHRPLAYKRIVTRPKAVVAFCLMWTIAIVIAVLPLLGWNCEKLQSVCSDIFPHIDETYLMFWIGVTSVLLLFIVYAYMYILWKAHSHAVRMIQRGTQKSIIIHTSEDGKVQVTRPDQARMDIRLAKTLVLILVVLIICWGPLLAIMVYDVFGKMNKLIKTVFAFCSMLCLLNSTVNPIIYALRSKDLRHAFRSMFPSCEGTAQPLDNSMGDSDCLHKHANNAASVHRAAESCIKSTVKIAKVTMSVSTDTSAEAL
Method: (§2) Binding assay. The bioassay is carried out using the Perkin Elmer 96-well Top Counter. This bioassay is also known as a competition binding assay and the biological evaluation is to determine the CB receptor binding affinity (Ki) of the screened ligands by displacing [^3H]-CP-55940 (or other radioligands). The brief procedure is given below.
(§3) Perkin Elmer 96-well TopCounter is used at PMLSC and in our laboratory to determine the CB receptor binding affinity (Ki) of the in-silico screened ligands by displacing [^3H]-CP-55,940 (or other radioligands). In competition binding experiments, the tested compound dilutions are carried out in triplicate in TME buffer (25 mM Tris, 5 mM MgCl2, 1 mM EDTA) containing 0.1% (w/v) fatty acid free bovine serum albumin (BSA), pH 7.4. Various concentrations of the tested compound are added in the same volume to 0.5 nM [^3H]CP-55,940. TME buffer and cell membrane preparations expressing CB receptors (2.5 μg per well) are added to a final volume of 200 μL. For the saturation binding experiments, varying concentrations of [^3H]CP-55,940 (0.05-1.5 nM) with or without 2 μM of unlabeled ligands (CP-55,940 or WIN-55,212-2) are incubated with the receptor membrane preparations to determine Kd and nonspecific binding. After the binding suspensions are incubated at 30° C. for 1 hr, the reaction is terminated by rapid filtration through microfiltration plates coated with 0.5% polyethylenimine (Unifilter GF/B filterplate, PerkinElmer) followed by 5 washes with ice cold TME buffer containing 0.5% BSA on a Packard Filtermate Harvester (PerkinElmer). The plates are then dried overnight and 30 μl MicroScint 0 scintillation cocktail are added to each well of the dried filter plates. Then the bound radioactivity is counted using a Perkin Elmer 96-well TopCounter. The Ki is calculated by using nonlinear regression analysis (Prism 5; GraphPad Software Inc., San Diego, Calif.), with the Kd values for [^3H]CP-55,940 determined from saturation binding experiments. This assay is used for determining binding affinity parameters (Ki) of ligand-receptor interactions for the CB receptor.
(§4) The affinities of the synthesized ligands were determined in radioligand binding studies at human CB1 and CB2 receptors using [3H](—)-cis-3-[2-hydroxy-4-(1,1 dimethylheptyl)phenyl]-trans-4-(3-hydroxypropyl) cyclohexanol (CP55,940) as a CB receptor radioligand. As a source for human CB1 and CB2 receptors, membrane preparations of Chinese hamster ovary (CHO) cells stably expressing the respective receptor subtype were utilized (50 μg of protein/vial). CB2 selective ligand SR144528 (CB2 inverse agonist) and CB1 ligand SR141716 (CB1 inverse agonist) were used as positive controls, respectively, along with the tested compounds in bioassays experiments. Only compounds with high CB2 receptor binding potency was chosen to carry out the CB1 binding assay. CB ligand competition binding assay was carried out as described previously in Gertsch, J., et al., Beta-caryophyllene is a dietary cannabinoid. Proc Natl Acad Sci USA 2008, 105 (26), 9099-104. Briefly, non-radioactive (or cold) ligands (synthesized derivatives and reference ligands) were diluted in a binding buffer (50 mM Tris-HCl (pH 7.4), 5 mM MgC12, 2.5 mM EGTA, and 0.1% (w/v) fatty acid free BSA), supplemented with 10% dimethyl sulfoxide and 0.4% methyl cellulose. Each assay plate well contained a total of 200 μL of reaction mixture composed of 5 μg of CB1 (or 2.5 μg CB2) membrane protein, labeled [3H]-CP-55,940 ligand at a final concentration of 2.5 nM, and the unlabeled ligand at its varying dilutions as stated above. Plates were incubated at 30° C. for 1 hour with gentle shaking.
(§5) The reaction was terminated by rapid filtration through Unifilter GF/B filter plates using a Unifilter Cell Harvester (PerkinElmer). After the plate was allowed to dry overnight, 30 μL MicroScint-0 cocktail (PerkinElmer) was added to each well, and the radioactivity was counted using a PerkinElmer TopCounter. […]

[3] = target: T3, human CB2 receptors (Homo sapiens, UniProt P34972); assay: [3H]CP-55,940 radioligand competition binding assay, CB2; conditions: for pKi: CHO cell membranes, [3H]CP-55,940 displacement
T3 construct: expressed in transfected cells
T3 sequence (P34972 whole entry): as the sequence (P34972 whole entry) above
Method: as §2, §3, §4, §5

Molecule | CB2 functional activity (LANCE cAMP signal) [1] | pKi [2] | SI: selectivity index for CB2, calculated as Ki(CB1)/Ki(CB2) ratio [3] | pKi [3]
CCCCCCC(C)(C)c1ccc([C@@H]2C[C@H](O)CC[C@H]2CCCO)c(O)c1 [CP55940, (—)-cis-3-[2-hydroxy-4-(1,1 dimethylheptyl)phenyl]-trans-4-(3-hydroxypropyl) cyclohexanol, reference compound] | inhibit cAMP production | – | – | –
CCN(CC)c1ccc(CN(Cc2ccc3c(c2)OCO3)S(=O)(=O)/C=C/c2ccccc2)cc1 [Compound 29, (E)-N-(benzo[d][1,3]dioxol-5-ylmethyl)-N-(4-(diethylamino)benzyl)-2-phenylethene-1-sulfonamide] | – | 5.94 | 3 | 6.42
CCN(CC)c1ccc(CN(Cc2ccc3c(c2)OCO3)S(=O)(=O)c2ccc(C=O)cc2)cc1 [Compound 30, N-(benzo[d][1,3]dioxol-5-ylmethyl)-N-(4-(diethylamino)benzyl)-4-formylbenzenesulfonamide] | – | 5.56 | 1 | 5.73
CCN(CC)c1ccc(CN(Cc2ccc3c(c2)OCO3)C(=O)c2cccs2)cc1 [Compound 32, N-(benzo[d][1,3]dioxol-5-ylmethyl)-N-(4-(diethylamino)benzyl)thiophene-2-carboxamide] | – | 6.14 | 2 | 6.24
CCCCCN(Cc1ccc(N(CC)CC)cc1)S(=O)(=O)/C=C/c1ccccc1 [Compound 37, (E)-N-(4-(diethylamino)benzyl)-N-pentyl-2-phenylethene-1-sulfonamide] | – | 5.28 | 10 | 6.29
CCCCCN(Cc1ccc(N(CC)CC)cc1)S(=O)(=O)c1ccc(C=O)cc1 [Compound 38, N-(4-(diethylamino)benzyl)-4-formyl-N-pentylbenzenesulfonamide] | – | 5.75 | 3 | 6.18
CCCCCN(Cc1ccc(N(CC)CC)cc1)C(=O)c1cnc2ccccc2n1 [Compound 39, N-(4-(diethylamino)benzyl)-N-pentylquinoxaline-2-carboxamide] | – | 5.73 | 1 | 5.73
CCCCCN(Cc1ccc(N(CC)CC)cc1)C(=O)c1cccs1 [Compound 40, N-(4-(diethylamino)benzyl)-N-pentylthiophene-2-carboxamide] | – | 5.61 | 7 | 6.44
SR-144,528 [reference compound] | inverse agonists | – | – | –
